The target in one assay is T1, p-AXL (Homo sapiens, UniProt P30530).
T1 construct: expressed in transfected cells; host or cells: HEK293T
T1 sequence (P30530 26-894): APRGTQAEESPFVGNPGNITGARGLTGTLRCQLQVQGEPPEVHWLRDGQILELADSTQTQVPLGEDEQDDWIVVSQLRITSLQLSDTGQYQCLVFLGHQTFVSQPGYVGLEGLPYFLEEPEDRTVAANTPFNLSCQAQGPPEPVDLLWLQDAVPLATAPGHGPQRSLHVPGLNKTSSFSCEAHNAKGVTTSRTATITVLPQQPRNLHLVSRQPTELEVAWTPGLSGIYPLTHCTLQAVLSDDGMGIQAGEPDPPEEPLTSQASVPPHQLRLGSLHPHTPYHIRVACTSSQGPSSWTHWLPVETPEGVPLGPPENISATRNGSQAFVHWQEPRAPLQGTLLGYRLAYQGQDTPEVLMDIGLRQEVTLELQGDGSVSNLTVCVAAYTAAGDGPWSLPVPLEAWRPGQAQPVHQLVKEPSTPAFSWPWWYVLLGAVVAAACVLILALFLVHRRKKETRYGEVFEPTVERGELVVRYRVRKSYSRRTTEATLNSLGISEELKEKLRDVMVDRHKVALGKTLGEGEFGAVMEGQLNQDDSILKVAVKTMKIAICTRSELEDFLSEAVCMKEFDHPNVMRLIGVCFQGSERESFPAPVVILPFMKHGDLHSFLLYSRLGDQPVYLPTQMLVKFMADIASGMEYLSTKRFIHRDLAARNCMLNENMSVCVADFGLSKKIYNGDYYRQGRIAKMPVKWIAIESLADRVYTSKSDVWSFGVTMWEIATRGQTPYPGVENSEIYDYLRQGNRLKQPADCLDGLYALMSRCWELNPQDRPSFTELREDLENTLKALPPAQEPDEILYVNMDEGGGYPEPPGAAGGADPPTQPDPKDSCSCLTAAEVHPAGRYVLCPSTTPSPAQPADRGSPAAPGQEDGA
Description: Axl phosphorylation inhibition ELISA in HEK293T cells transfected with NanoLuc-tagged AXL. The class given is cell-based. As to conditions: 1 h compound incubation, media (OptiMEM). A digest of the protocol: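 Phospho-AXL detected by luminescence of NanoLuc tag after capture of cell lysate on biotinylated anti-phospho-tyrosine mAb plates (2 h). Lysates came from transiently transfected HEK293T cells treated 1 h at 37° C with serial 2-fold dilutions (22 points). IC50 by standard 4-parameter logistic fitting.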
On the technique in general: ELISA stands for enzyme-linked immunosorbent assay.

The next assay deals with T2, Axl (Homo sapiens, UniProt P30530).
T2 sequence (P30530 26-894): T1 sequence (P30530 26-894)
Description: Biochemical potency, HTRF KinEASE-TK kinase assay. As to conditions: 5 nM AXL, 700 μM ATP. Also noted: purchased Invitrogen. The procedure, abridged: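 Steps: compound plus kinase, 1 h RT; add ATP (700 µM final) and biotin-TK substrate (800 nM final); run 2 h RT; stop into streptavidin-XL665/anti-phospho cryptate detection mix, 1 h; read 665/620. AXL at 5 nM, TYRO3 and MER at 1 nM.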
A general note: In TR-FRET formats the signal depends on donor and acceptor labels being close together.

A word on the IC50: it is the concentration that inhibits the measured activity by half. The low end stands for greater potency in that assay, the high end for weaker potency in that assay. In the case of `Cc1cccnc1-c1ccc(-c2n[nH]c3ncc(-c4ccc5c(c4)CC[C@@H](N4C6COCC4C6)CC5)cc23)cc1` [Example 2, 6-[(7S)-2-{3-[4-(3-Methylpyridin-2-yl)phenyl]-2H-pyrazolo[3,4-b]pyridin-5-yl}-6,7,8,9-tetrahydro-5H-benzo[7]annulen-7-yl]-3-oxa-6-azabicyclo[3.1.1]heptane], the IC50 at p-AXL and on Axl was under 100 nM each time.

At Axl, `Clc1cccnc1-c1ccc(-c2c[nH]c3ncc(-c4ccc5c(c4)CC[C@@H](N4C6COCC4C6)CC5)cc23)cc1` [Example 43, 6-[(7S)-2-{3-[4-(3-Chloropyridin-2-yl)phenyl]-1H-pyrrolo[2,3-b]pyridin-5-yl}-6,7,8,9-tetrahydro-5H-benzo[7]annulen-7-yl]-3-oxa-6-azabicyclo[3.1.1]heptane] showed an IC50 of under 100 nM.

As to `Cc1cc(C)c(-c2ccc(-c3c[nH]c4ncc(-c5ccc6c(c5)CC[C@@H](N5C7COCC5C7)CC6)cc34)cc2)nn1` [Example 80, 6-[(7S)-2-{3-[4-(4,6-Dimethylpyridazin-3-yl)phenyl]-1H-pyrrolo[2,3-b]pyridin-5-yl}-6,7,8,9-tetrahydro-5H-benzo[7]annulen-7-yl]-3-oxa-6-azabicyclo[3.1.1]heptane], the IC50 against p-AXL and against Axl was under 100 nM each time.

Consider `Cc1cccnc1-c1ccc(-c2c[nH]c3ncc(-c4ccc5c(c4)CC[C@@H](N4C6COCC4C6)CC5)cc23)cc1` [Example 1, 6-[(7S)-2-{3-[4-(3-Methylpyridin-2-yl)phenyl]-1H-pyrrolo[2,3-b]pyridin-5-yl}-6,7,8,9-tetrahydro-5H-benzo[7]annulen-7-yl]-3-oxa-6-azabicyclo[3.1.1]heptane], for which the IC50 against p-AXL and against Axl was under 100 nM throughout.

For the molecule `COc1ccnc(-c2ccc(-c3c[nH]c4ncc(-c5ccc6c(c5)CC[C@@H](N5C7COCC5C7)CC6)cc34)cc2)c1C` [Example 86, 6-[(7S)-3-[3-[4-(4-Methoxy-3-methylpyridin-2-yl)phenyl]-1H-pyrrolo[2,3-b]pyridin-5-yl]-6,7,8,9-tetrahydro-5H-benzo[7]annulen-7-yl]-3-oxa-6-azabicyclo[3.1.1]heptane], the IC50 against p-AXL is 100 to 1000 nM; against Axl it was under 100 nM.

In the case of `CS(=O)(=O)c1ccccc1-c1ccc(-c2c[nH]c3ncc(-c4ccc5c(c4)CC[C@@H](N4C6COCC4C6)CC5)cc23)cc1` [Example 93, 6-[(7S)-2-(3-{2′-Methanesulfonyl-[1,1′-biphenyl]-4-yl}-1H-pyrrolo[2,3-b]pyridin-5-yl)-6,7,8,9-tetrahydro-5H-benzo[7]annulen-7-yl]-3-oxa-6-azabicyclo[3.1.1]heptane], the IC50 against p-AXL was 100 to 1000 nM; against Axl, under 100 nM.

Turning to `Cc1cnc(C)c(-c2ccc(-c3c[nH]c4ncc(-c5ccc6c(c5)CC[C@@](C)(N5CCC[C@H]5C)CC6)cc34)cc2)n1` [Example 58, 2,5-Dimethyl-3-(4-{5-[(7S)-7-methyl-7-[(2R)-2-methylpyrrolidin-1-yl]-6,7,8,9-tetrahydro-5H-benzo[7]annulen-2-yl]-1H-pyrrolo[2,3-b]pyridin-3-yl}phenyl)pyrazine], the IC50 at p-AXL and at Axl was under 100 nM in each case.

Take `COc1cccc(-c2ccc(-c3n[nH]c4ncc(-c5ccc6c(c5)CC[C@@H](N5C7COCC5C7)CC6)cc34)cc2)n1` [Example 162, 6-[(7S)-2-{3-[4-(6-Methoxypyridin-2-yl)phenyl]-2H-pyrazolo[3,4-b]pyridin-5-yl}-6,7,8,9-tetrahydro-5H-benzo[7]annulen-7-yl]-3-oxa-6-azabicyclo[3.1.1]heptane]: the IC50 against Axl is under 100 nM.

As for `N#Cc1cccnc1-c1ccc(-c2n[nH]c3ncc(-c4ccc5c(c4)CC[C@@H](N4C6COCC4C6)CC5)cc23)cc1` [Example 52, 2-(4-{5-[(7S)-7-{3-Oxa-6-azabicyclo[3.1.1]heptan-6-yl}-6,7,8,9-tetrahydro-5H-benzo[7]annulen-2-yl]-1H-pyrazolo[3,4-b]pyridin-3-yl}phenyl)pyridine-3-carbonitrile], the IC50 against p-AXL and at Axl was under 100 nM throughout.

With `CC(C)(C#N)c1cccnc1-c1ccc(-c2n[nH]c3ncc(-c4ccc5c(c4)CC[C@@H](N4C6COCC4C6)CC5)cc23)cc1` [Example 85, 2-Methyl-2-[2-[4-[5-[(7S)-7-(3-oxa-6-azabicyclo[3.1.1]heptan-6-yl)-6,7,8,9-tetrahydro-5H-benzo[7]annulen-3-yl]-1H-pyrazolo[3,4-b]pyridine-3-yl]phenyl]pyridine-3-yl]propanenitrile], the IC50 against p-AXL and on Axl was under 100 nM in each case.

`Clc1cc(-c2c[nH]c3ncc(-c4ccc5c(c4)CC[C@@H](N4C6COCC4C6)CC5)cc23)ccc1-c1ccccn1` [Example 44, 6-[(7S)-2-{3-[3-Chloro-4-(pyridin-2-yl)phenyl]-1H-pyrrolo[2,3-b]pyridin-5-yl}-6,7,8,9-tetrahydro-5H-benzo[7]annulen-7-yl]-3-oxa-6-azabicyclo[3.1.1]heptane]: the results for the IC50 on p-AXL and at Axl were 100 to 1000 nM and under 100 nM, respectively.

Regarding `Cc1cnc(-c2ccc(-c3c[nH]c4ncc(-c5ccc6c(c5)CC[C@@H](N5C7COCC5C7)CC6)cc34)cc2)c(C)n1` [Example 50, 6-[(7S)-2-{3-[4-(3,5-Dimethylpyrazin-2-yl)phenyl]-1H-pyrrolo[2,3-b]pyridin-5-yl}-6,7,8,9-tetrahydro-5H-benzo[7]annulen-7-yl]-3-oxa-6-azabicyclo[3.1.1]heptane], the IC50 on p-AXL and on Axl was under 100 nM throughout.

With `Cc1nccnc1-c1ccc(-c2c[nH]c3ncc(-c4ccc5c(c4)CC[C@@H](N4C6COCC4C6)CC5)cc23)cc1` [Example 48, 6-[(7S)-2-{3-[4-(3-Methylpyrazin-2-yl)phenyl]-1H-pyrrolo[2,3-b]pyridin-5-yl}-6,7,8,9-tetrahydro-5H-benzo[7]annulen-7-yl]-3-oxa-6-azabicyclo[3.1.1]heptane], the IC50 against p-AXL and on Axl was under 100 nM throughout.

The molecule `Fc1cccnc1-c1ccc(-c2c[nH]c3ncc(-c4ccc5c(c4)CC[C@@H](N4C6COCC4C6)CC5)cc23)cc1` [Example 42, 6-[(7S)-2-{3-[4-(3-Fluoropyridin-2-yl)phenyl]-1H-pyrrolo[2,3-b]pyridin-5-yl}-6,7,8,9-tetrahydro-5H-benzo[7]annulen-7-yl]-3-oxa-6-azabicyclo[3.1.1]heptane] had a half-inhibitory concentration (IC50) against Axl of under 100 nM.

In the case of `Fc1cc(-c2c[nH]c3ncc(-c4ccc5c(c4)CC[C@@H](N4C6COCC4C6)CC5)cc23)ccc1-c1ccccn1` [Example 40, 6-[(7S)-2-{3-[3-Fluoro-4-(pyridin-2-yl)phenyl]-1H-pyrrolo[2,3-b]pyridin-5-yl}-6,7,8,9-tetrahydro-5H-benzo[7]annulen-7-yl]-3-oxa-6-azabicyclo[3.1.1]heptane], the IC50 on Axl was under 100 nM.

For `Cc1nncn1-c1ccc(-c2n[nH]c3ncc(-c4ccc5c(c4)CC[C@@H](N4C6COCC4C6)CC5)cc23)cc1` [Example 11, 6-[(7S)-2-{3-[4-(3-Methyl-4H-1,2,4-triazol-4-yl)phenyl]-1H-pyrazolo[3,4-b]pyridin-5-yl}-6,7,8,9-tetrahydro-5H-benzo[7]annulen-7-yl]-3-oxa-6-azabicyclo[3.1.1]heptane], the IC50 at Axl was under 100 nM.

At Axl, `c1cncc(-c2ccc(-c3n[nH]c4ncc(-c5ccc6c(c5)CC[C@@H](N5C7COCC5C7)CC6)cc34)cc2)c1` [Example 157, 6-[(7S)-2-{3-[4-(Pyridin-3-yl)phenyl]-2H-pyrazolo[3,4-b]pyridin-5-yl}-6,7,8,9-tetrahydro-5H-benzo[7]annulen-7-yl]-3-oxa-6-azabicyclo[3.1.1]heptane] returned an IC50 of under 100 nM.

Take `COc1cc(-c2c[nH]c3ncc(-c4ccc5c(c4)CC[C@@H](N4C6COCC4C6)CC5)cc23)ccc1-c1ccccn1` [Example 161, 6-[(7S)-2-{3-[3-Methoxy-4-(pyridin-2-yl)phenyl]-1H-pyrrolo[2,3-b]pyridin-5-yl}-6,7,8,9-tetrahydro-5H-benzo[7]annulen-7-yl]-3-oxa-6-azabicyclo[3.1.1]heptane]: at Axl, the IC50 was under 100 nM.

For `COc1cc(-c2n[nH]c3ncc(-c4ccc5c(c4)CC[C@@H](N4C6COCC4C6)CC5)cc23)ccc1-c1ccccn1` [Example 160, 6-[(7S)-2-{3-[3-Methoxy-4-(pyridin-2-yl)phenyl]-2H-pyrazolo[3,4-b]pyridin-5-yl}-6,7,8,9-tetrahydro-5H-benzo[7]annulen-7-yl]-3-oxa-6-azabicyclo[3.1.1]heptane], the IC50 against Axl is under 100 nM.
